Ends that are not written are not given here.
Test system: platelets
Assay: Activation of platelets by plasma protein fragment
Format: cell-based

HHLGGAKQAGDV
ability to activate platelets: able to activate platelets
